Tests used:
Type in all cases: physicochemical
[1] = Solubility behaviour of the crystals; settings: finely granular crystals
Source text: The modifications B and C can be employed for specific pharmaceutical forms such as capsules and dry ampoules.

[2] = Stability of the crystal structure (lattice) on heating and storage
Method: The crystal structure is stable up to approx. 80° C.

[3] = Lattice stability on contact with solvents; settings: contact with solvents such as water, ethanol, acetone or toluene

SMILES | speed of dissolution of crystals [1] | lattice changes after storage ([2]; relatively long storage at temperatures up to 60° C. and relative atmospheric humidities up to 70%) | crystal structure is stable up to (temperature) ([2]; solid state, temperature limit of lattice stability) | lattice change on contact with solvents [3]
CCOC(=O)Nc1ccc(NCc2ccc(F)cc2)cc1N [modification C, 2-amino-4-(4-fluorobenzylamino)-1-ethoxycarbonylaminobenzene] | particularly rapidly soluble |  |  | 
CCOC(=O)Nc1ccc(NCc2ccc(F)cc2)cc1N [modification A, 2-amino-4-(4-fluorobenzylamino)-1-ethoxycarbonylaminobenzene] |  | no lattice changes are observed | approx. 80 °C | no lattice change

Reference: US6538151B1, “Modifications of 2-amino-4-(4-fluorobenzylamino)-1-ethoxycarbonylaminobenzene, and processes for their preparation” (Asta Medica Aktiengesellschaft, priority 1997, dated 2003)
